Experimental data from paper PMC3885398, “Evaluation of the Antitumor Effects of BPR1J-340, a Potent and Selective FLT3 Inhibitor, Alone or in Combination with an HDAC Inhibitor, Vorinostat, in AML Cancer” (PLoS ONE, 2014).

System: STAT5 phosphorylation at Tyr694
Assay: STAT5 phosphorylation at Tyr694 in MOLM-13 cells, Western blot
Format: cell-based, human
Conditions: MOLM-13, 20 hours, Fig. 4D
Description: Cells were lysed in lysis buffer (50 mM Tris, pH 8.0, 150 mM NaCl, 1% Triton X-100, 0.5% sodium deoxycholate, 0.1% SDS, 1 mM sodium orthovanadate, 1 mM PMSF, and 1 mM DTT). Protein lysates were resolved by SDS-PAGE and transferred onto a polyvinylidene difluoride (PVDF) membrane (Millipore, Bedford, MA, USA). The membranes were immunoblotted with appropriate antibodies and detected using the SuperSignal reagent (Pierce, Rockford, IL, USA) followed by exposure to X-ray film.
Some histone deacetylase inhibitors (HDACi) will enhance the cytotoxic activity of FLT3 inhibitor on FLT3-ITD^+ cell via degradation of FLT3-ITD and STAT5 [24], [26], [36], [37]. To determine whether SAHA, an HDACi, can synergize with BPR1J-340 to enhance cytotoxicity in FLT3-ITD expressing cells by interfering with the FLT3-ITD and STAT5 axis, the combined effects of SAHA and BPR1J-340 on cytotoxicity were examined. The cell growth rate of MOLM-13 and MV4;11 with SAHA and BPR1J-340 combinational treatment was decreased compared with the single-drug treatment (Fig. 4A). […]
Figure 4 The effect of BPR1J-340 and SAHA versus drug combination on AML FLT3-ITD+ cells. […] (A) Viable cells were counted after staining with trypan blue dye at indicated time point (B) At 48-hours after treatment, cells were stained with FITC-labeled annexin V and propidium iodide and percentages of apoptotic cells were analyzed by flow cytometry. […]

For CCc1cc(NC(=O)NCc2ccc(-c3cc(NC(=O)c4ccc(CN5CCN(C)CC5)cc4)[nH]n3)cc2)no1 [BPR1J-340, N1-(3-4-[([(5-ethyl-3-isoxazolyl)amino]carbonylamino)methyl]phenyl-1H-5-pyrazolyl)-4-[(4-methylpiperazino)methyl]benzamide], which “STAT5 phosphorylation at Tyr694” value is on record?
Its value is “completely block”.
